{"source": "patent US20220025053A1", "about": "“Methods of Inhibiting Metastasis in Cancer” (Wisconsin Alumni Research Foundation, priority 2018, published 2022)", "molecules": {"B1": {"name": "MIP-1β: recombinant chemokine MIP-1β (Peprotech; recombinant mouse MIP-1β in vivo) (protein, UniProt P13236 24-92, looked up)", "C-C motif chemokine 4": "APMGSDPPTACCFSYTARKLPRNFVVDYYETSSLCSQPAVVFQTKRSKQVCADPSESWVQEYVYDLELN"}, "B2": {"name": "crizanlizumab (antibody, chains of the INN, looked up, V domains shown)", "VH": "QVQLVQSGAEVKKPGASVKVSCKVSGYTFTSYDINWVRQAPGKGLEWMGWIYPGDGSIKYNEKFKGRVTMTVDKSTDTAYMELSSLRSEDTAVYYCARRGEYGNYEGAMDYWGQGTLVTVSS", "VL": "DIQMTQSPSSLSASVGDRVTITCKASQSVDYDGHSYMNWYQQKPGKAPKLLIYAASNLESGVPSRFSGSGSGTDFTLTISSLQPEDFATYYCQQSDENPLTFGGGTKVEIK", "notes": "monoclonal antibody against P-selectin"}}, "key": {"P-selectin [1]": {"biological_target": "T1, P-selectin (Homo sapiens, UniProt P16109)", "T1 sequence (P16109 42-830)": "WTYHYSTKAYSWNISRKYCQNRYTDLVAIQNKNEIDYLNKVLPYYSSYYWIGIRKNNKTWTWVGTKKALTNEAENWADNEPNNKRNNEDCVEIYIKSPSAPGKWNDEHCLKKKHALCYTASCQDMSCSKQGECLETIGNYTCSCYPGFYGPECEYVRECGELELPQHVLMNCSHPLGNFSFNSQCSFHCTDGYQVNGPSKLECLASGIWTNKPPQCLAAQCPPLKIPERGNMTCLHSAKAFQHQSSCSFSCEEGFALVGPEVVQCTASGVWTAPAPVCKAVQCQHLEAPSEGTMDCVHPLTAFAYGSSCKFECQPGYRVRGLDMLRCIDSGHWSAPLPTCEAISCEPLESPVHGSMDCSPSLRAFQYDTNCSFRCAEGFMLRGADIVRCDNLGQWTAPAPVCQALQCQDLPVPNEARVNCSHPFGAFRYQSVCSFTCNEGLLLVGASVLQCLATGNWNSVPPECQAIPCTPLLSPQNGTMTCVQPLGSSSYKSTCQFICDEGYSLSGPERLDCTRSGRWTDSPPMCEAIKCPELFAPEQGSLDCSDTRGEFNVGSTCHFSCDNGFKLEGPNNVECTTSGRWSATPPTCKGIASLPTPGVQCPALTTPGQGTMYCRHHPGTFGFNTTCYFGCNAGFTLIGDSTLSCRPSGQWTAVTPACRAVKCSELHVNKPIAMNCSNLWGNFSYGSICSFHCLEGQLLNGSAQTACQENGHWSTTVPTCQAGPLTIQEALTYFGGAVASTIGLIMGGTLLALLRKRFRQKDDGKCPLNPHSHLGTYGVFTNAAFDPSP", "experiment": "HGSOC adhesion to LP-9 mesothelial cells in co-culture device, P-selectin inhibition", "assay_type": "cell-based", "set-up": "endogenous in cells; host or cells: LP-9 mesothelial cells", "conditions": "LP-9 + 100 ng/mL MIP-1β; 10 μM KF38789 1 hour before tumor cells; 3 h adhesion", "description": "(§1) In vitro model of adhesion in transcoelomic metastasis: A co-culture device was modified to construct the in vitro model of metastatic adhesion (FIG. 2). The device includes a PDMS ring that is placed in a well of a 24 well tissue culture plate and a 9×9 mm coverslip placed on top. One or more cell types can be grown within the ring, while another population can be grown on the coverslip. Inverting the coverslip on top of the ring initiates co-culture between the populations. The tissue culture plastic within the PDMS ring was coated with 1 μg of PureCol® Collagen I (Advanced Biomatrix; San Diego, Calif.) for 2 hours at room temperature. LP-9 or LP-3 were seeded into the PDMS rings to confluency (93,500 cells/cm^2 in 40 μL). Twenty-four hours after seeding, cells were washed with SFM, AAM or control coverslips were placed on top of the PDMS ring, and 40 μL of fresh SFM was added. HGSOC cells were stained with 5 μM CellTracker™ Green CMFDA Dye, dissociated using TrypLE™ Select Enzyme, and seeded into devices at 10,000 cells/10 μL after 24 hours of mesothelial cells and AAMs co-culture. […] Percent adhesion was quantified by converting cells/image to total cells/area of the co-culture device and dividing by the number of HGSOC cells added to the device."}, "P-selectin [2]": {"biological_target": "T1, P-selectin", "experiment": "Colorectal cancer cell adhesion to MIP-1β-treated LP-9", "assay_type": "cell-based", "set-up": "endogenous in cells; host or cells: LP-9 mesothelial cells", "conditions": "LS411N, SW48; 100 ng/mL MIP-1β; KF38789 10 μM", "method": "The experimental methods are reflective of those previously used to inhibit P-selectin, while used in an adhesion experiment with the colorectal cell lines LS411N and SW48.\nThe tissue culture plastic within the PDMS ring was coated with 1 μg of PureCol® Collagen I for 2 hours at room temperature. LP-9 were seeded into the PDMS rings to confluency (93,500 cells/cm^2 in 40 μL). Twenty-four hours after seeding, cells were washed with SFM, and 40 μL of fresh SFM containing either vehicle (0.1% BSA) or 100 ng/mL MIP-1β was added for 24 hours. To determine if P-selectin played a role in adhesion, LP-9 were treated with 10 μM of the small molecule P-selectin inhibitor KF38789 or DMSO (0.0005% v/v) 1 hour prior to the addition of colorectal cancer cells. The colorectal cancer cells (LS411N, SW48) were stained with 5 μM CellTracker™ Green CMFDA Dye, dissociated using TrypLE Select Enzyme, and seeded into devices at 10,000 cells/10 μL after 24 hours of mesothelial cell treatment with MIP-1β. Colorectal cancer cells were allowed to adhere for three hours, then coverslips were removed, and devices were washed twice with 2 mL PBS to remove non-adherent cells. […] Percent adhesion was quantified by converting cells/image to total cells/area of the co-culture device and dividing by the number of HGSOC cells added to the device."}, "MEK": {"tested_on": "MEK", "experiment": "SELP expression in LP-9 by qRT-PCR, MEK inhibition", "assay_type": "cell-based, human", "conditions": "both vehicle and 100 ng/mL MIP-1β treated LP-9, 10 μM PD0325901, 24 hours", "description": "(§2) RNA extraction and qRT-PCR: RNA was collected and isolated using the Micro-RNeasy® Extraction kit (Qiagen; Valencia, Calif.), and cDNA was synthesized using the Qiagen® First Strand Kit according to manufacturer's instructions. cDNA was mixed with Qiagen® Mastermix and assayed using the Extracellular Matrix and Adhesion Molecules RT2 Profiler PCR Array (Qiagen) in a CFX real time PCR machine (Bio-Rad; Hercules, Calif.) for a total of 40 cycles, using Qiagen's Data Analysis Center for analysis. Data is expressed as fold change, with ±2-fold set as the threshold for significance. qRT-PCR was performed using human primers for SELP, CCR1, and CCR5, and GAPDH (all Qiagen), and mouse primers for Selp (Qiagen) and Aes (IDT; Coralville, Iowa), with SsoAdvanced™ Universal SYBR® Green Supermix (Bio-Rad). Three samples were run in duplicate from each condition.\n(§3) Interventions in co-culture model: To determine if P-selectin played a role in adhesion, LP-9 in co-culture devices were treated with 10 μg/mL of anti-P-selectin blocking antibody or monoclonal mouse IgG1 isotype (BioLegend; San Diego, Calif.), or 10 μM of the small molecular inhibitor KF38789 (Tocris; Minneapolis, Minn.) or DMSO (0.0005% v/v) 1 hour prior to the addition of ovarian cancer cells. […]"}, "ovarian cancer xenograft": {"tested_on": "ovarian cancer xenograft", "conditions": "clodronate to reduce macrophage levels; cited from earlier work"}, "HGSOC": {"tested_on": "HGSOC", "conditions": "mouse models of HGSOC; cited from earlier work"}, "CCR5": {"biological_target": "CCR5 (Homo sapiens, UniProt P51681)", "sequence (P51681 whole entry)": "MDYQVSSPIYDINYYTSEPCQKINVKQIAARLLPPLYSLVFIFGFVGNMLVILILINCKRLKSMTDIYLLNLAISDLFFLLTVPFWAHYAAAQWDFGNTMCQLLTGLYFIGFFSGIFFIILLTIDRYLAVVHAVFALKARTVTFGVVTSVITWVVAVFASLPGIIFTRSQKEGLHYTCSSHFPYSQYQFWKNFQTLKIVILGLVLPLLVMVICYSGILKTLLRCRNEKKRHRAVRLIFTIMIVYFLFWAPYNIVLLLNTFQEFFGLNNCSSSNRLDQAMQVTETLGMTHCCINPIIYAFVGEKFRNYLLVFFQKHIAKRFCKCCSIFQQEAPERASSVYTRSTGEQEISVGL", "experiment": "SELP expression in LP-9 by qRT-PCR, CCR5 inhibition", "assay_type": "cell-based", "conditions": "100 ng/mL MIP-1β + 10 μg/mL maraviroc, 24 hours", "description": "as §2, §3"}, "P-selectin [3]": {"biological_target": "T1, P-selectin", "conditions": "clinical trial; cited from earlier work"}, "[4]": {"conditions": "administered systemically; cited from earlier work"}, "LP-9 mesothelial cells": {"tested_on": "LP-9 mesothelial cells", "experiment": "HGSOC adhesion to LP-9 treated with MIP-1β", "assay_type": "cell-based, human", "conditions": "100 ng/mL MIP-1β 24 hours, all HGSOC lines", "description": "as §1"}, "P-selectin [5]": {"biological_target": "T1, P-selectin", "conditions": "cited from earlier work"}}, "note": "“Also recorded” adds a separate entry of the source.", "data": [{"molecule": "COc1ccc(C2CC(c3c(O)cc(C)oc3=O)=NCCS2)c(OC)c1", "note": "(stereo not drawn) [KF38789, reference compound]", "values": [{"measurement": "HGSOC adhesion to LP-9 increased by MIP-1β", "setting": "P-selectin [1]", "value": "abrogated the increased adhesion"}, {"measurement": "Colorectal cancer cell adhesion to LP-9 increased by MIP-1β", "setting": "P-selectin [2]", "value": "abrogates the increased adhesion"}]}, {"molecule": "O=C(NOC[C@H](O)CO)c1ccc(F)c(F)c1Nc1ccc(I)cc1F", "note": "[PD0325901]", "values": [{"measurement": "SELP expression in LP-9", "setting": "MEK", "value": "significantly decreased SELP expression"}]}, {"molecule": "O=P(O)(O)C(Cl)(Cl)P(=O)(O)O", "note": "[clodronate]", "values": [{"measurement": "Metastasis", "setting": "ovarian cancer xenograft", "value": "decreased metastasis"}]}, {"molecule": "IL-1ra: AAM-secreted ligand IL-1ra", "values": [{"measurement": "Extent of metastasis", "setting": "HGSOC", "value": "decrease the extent of metastasis"}]}, {"molecule": "Maraviroc", "values": [{"measurement": "MIP-1β-stimulated SELP expression in LP-9", "setting": "CCR5", "value": "effective in inhibiting MIP-1β-stimulated expression of SELF"}, {"measurement": "MIP-1β-stimulated SELP expression in LP-9", "setting": "CCR5; listed as maraviroc", "value": "negated SELP upregulation; also recorded: inhibited the upregulation of SELP"}]}, {"molecule": "inclacumab", "values": [{"measurement": "Efficacy for saphenous vein graft failure following coronary artery bypass surgery", "setting": "P-selectin [3]", "value": "surgery (94-96). While inclacumab had low efficacy for this"}, {"measurement": "Tolerability in patients", "setting": "[4]", "value": "well tolerated"}]}, {"molecule": "B1", "values": [{"measurement": "HGSOC adhesion to LP-9 treated with MIP-1β", "setting": "LP-9 mesothelial cells", "value": "significantly increased adhesion"}]}, {"molecule": "B2", "values": [{"measurement": "Effect on P-selectin-ligand binding", "setting": "P-selectin [5]", "value": "not only block ligand binding but also disrupt existing P-selectin-ligand interactions"}, {"measurement": "Tolerability in patients", "setting": "[4]", "value": "well tolerated"}]}]}
